Read-outs that look alike come from different tables or passages of the source. Blank lines part the entries; values can stand above or below the compound they belong to.
What was measured:
[1] = presence of food; cited from earlier work
[2] = Comparative pharmacokinetic study of sublingual thin film and oral formulation in rabbits; assay type: in vivo; settings: rabbit, blood, male New Zealand White Rabbits
Description: Animals. […] No non-disintegrated film fragments were observed.

[3] = in vitro, human; cited from earlier work
[4] = BCS class I drug substance; cited from earlier work
[5] = cited from earlier work; for oral bioavailability: significant first pass metabolism
[6] = other: sublingual, sublingual route, oral thin film, 10 mg
[7] = oral dosing by gavage as a solution

AUC(0-inf) [2, 6]: 232 ± 106 ng·h/mL
AUC(0-t) [2, 6]: 226 ± 107 ng·h/mL
Cmax [2, 6]: 79.4 ± 51.6 ng/mL
MRT last [2, 6]: 2.72 ± 0.359 h
Tmax [2, 6]: 0.667 ± 0.289 h
half-life [2, 6]: 2.55 ± 0.511 h
AUC(0-inf) [2, 7]: 9.6 ± 6.04 ng·h/mL
AUC(0-t) [2, 7]: 6.31 ± 4.85 ng·h/mL
Cmax [2, 7]: 3.31 ± 2.11 ng/mL
MRT last [2, 7]: 1.53 ± 0.546 h
Tmax [2, 7]: 0.583 ± 0.382 h
half-life [2, 7]: 2.35 ± 0.341 h
SMILES: CCCCCCCC(=O)N[C@H](CN1CCCC1)[C@H](O)c1ccc2c(c1)OCCO2.O=C(O)C(O)C(O)C(=O)O [Eliglustat tartrate, N-((1R,2R)-1-(2,3-dihydrobenzo [b] [1,4]dioxin-6-yl)-1-hydroxy-3-(pyrrolidin-1-yl)propan-2-yl) octanamide (2R,3R)-2,3-dihydroxysuccinate]
effect of food on extent of absorption [1]: did not affect the extent of absorption

SMILES: CCCCCCCC(=O)N[C@H](CN1CCCC1)[C@H](O)c1ccc2c(c1)OCCO2 [Genz-99067]
first-pass effect indicated by metabolic stability [3]: significant first-pass effect

SMILES: CCCCCCCC(=O)N[C@H](CN1CCCC1)[C@H](O)c1ccc2c(c1)OCCO2 [eliglustat]
solubility [4]: high
absolute bioavailability ([5]; CERDELGA capsule, CHMP European Assessment report): 4.49%±4.13
oral bioavailability [5]: less than 5%
oral bioavailability ([5]; listed as Eliglustat): < 5%

From US12472144B2, “Pharmaceutical composition comprising eliglustat” (Amneal Pharmaceuticals LLC, priority 2017, dated 2025)
